In ChEMBL document CHEMBL4619751, “Synthesis of novel spirobibenzopyrans as potent anticancer leads inducing apoptosis in HeLa cells” (Bioorg Med Chem Lett, 2020):
pIC50: −log10 of the molar value. Calls of active or inactive are those of the source. The rule behind the calls is not given here.

What was measured:
HeLa [1] = experiment: Cytotoxicity against human HeLa cells assessed as growth inhibition by MTT assay; type: functional, cell-based
HeLa [2] = experiment: Induction of DNA damage in human HeLa cells assessed as tail DNA formation at IC50 by alkaline Comet assay; type: functional
HeLa [3] = experiment: Cytotoxicity against human HeLa cells assessed as cell proliferation at 10 uM by MTT assay relative to control; type: functional; details: read-out: Activity
HeLa [4] = experiment: Cell cycle arrest in human HeLa cells assessed as accumulation at sub G0/G1 phase at 10 uM measured after 48 hrs by FACS analysis; type: functional, cell-based
HeLa [5] = experiment: Induction of apoptosis in human HeLa cells assessed as nuclear fragmentation by acridine oranga/ethidium bromide staining based assay; type: functional, cell-based
HeLa [6] = experiment: Cell cycle arrest in human HeLa cells assessed as accumulation at early G0/G1 phase at 10 uM measured after 48 hrs by FACS analysis; type: functional, cell-based
HeLa [7] = experiment: Cell cycle arrest in human HeLa cells assessed as accumulation at middle G0/G1 phase at 10 uM measured after 48 hrs by FACS analysis; type: functional, cell-based
HeLa [8] = experiment: Cell cycle arrest in human HeLa cells assessed as accumulation at S phase at 50 uM measured after 48 hrs by FACS analysis; type: functional, cell-based
HeLa [9] = experiment: Cell cycle arrest in human HeLa cells assessed as accumulation at sub G0/G1 phase at 50 uM measured after 48 hrs by FACS analysis; type: functional, cell-based
HeLa [10] = experiment: Cell cycle arrest in human HeLa cells assessed as accumulation at S phase at 10 uM measured after 48 hrs by FACS analysis; type: functional, cell-based
HeLa [11] = experiment: Induction of apoptosis in human HeLa cells assessed as chromatin condensation by acridine oranga/ethidium bromide staining based assay; type: functional, cell-based
HeLa [12] = experiment: Induction of DNA damage in human HeLa cells assessed as inhibition of DNA replication; type: functional, cell-based

Structure (SMILES) | pIC50 (HeLa [1]) | growth at 10 µM (HeLa [3]) [%] | further results
O=c1[nH]cc(F)c(=O)[nH]1 [FLUOROURACIL] | 4.82 | 73.7 | Activity (HeLa [2]): 6.91 um
C1=C2CCCC3=Cc4ccccc4OC23Oc2ccccc21 |  | 77 | 
Clc1ccc2c(c1)C=C1CCCC3=Cc4cc(Cl)ccc4OC13O2 |  | 105 | 
Clc1ccc2c(c1)C=C1CCCCC3=Cc4cc(Cl)ccc4OC13O2 |  | 90.1 | 
COc1ccc2c(c1)C=C1CCCCC3=Cc4cc(OC)ccc4OC13O2 | 4.92 | 59.3 | Activity (HeLa [4]): Active; Activity (HeLa [5]): Active; Activity (HeLa [6]): Active
COc1ccc2c(c1)OC13Oc4cc(OC)ccc4C=C1CCCCC3=C2 |  | 108 | 
Clc1cc(Cl)c2c(c1)C=C1CCCCC3=Cc4cc(Cl)cc(Cl)c4OC13O2 |  | 102 | 
COc1ccc2c(c1)C=C1CCCC3=Cc4cc(OC)ccc4OC13O2 | 4.97 | 46.6 | Activity (HeLa [4]): Active; Activity (HeLa [7]): Active; Activity (HeLa [5]): Active; Activity (HeLa [8]): inactive; Activity (HeLa [9]): inactive; Activity (HeLa [10]): Active
COc1ccc2c(c1)OC13Oc4cc(OC)ccc4C=C1CCCC3=C2 | 4.87 | 62.1 | Activity (HeLa [4]): Active; Activity (HeLa [2]): 3.32 um; Activity (HeLa [11]): Active; Activity (HeLa [12]): Active; Activity (HeLa [10]): Active
Brc1ccc2c(c1)C=C1CCCCC3=Cc4cc(Br)ccc4OC13O2 |  | 111 | 
C1=C2CCCCC3=Cc4ccccc4OC23Oc2ccccc21 |  | 80.2 | 
Clc1ccc2c(c1)C=C1CSCC3=Cc4cc(Cl)ccc4OC13O2 |  | 105 | 
